Data: patent US5750558A, “Oxime derivatives of indole and indene compounds as inhibitors of prostaglandin biosynthesis” (Abbott Laboratories, priority 1996, dated 1998)
pIC50: −log10 of the molar value.

Experiments:
recombinant human PGHS-1 = biological target: T1, recombinant human PGHS-1 (Homo sapiens, UniProt P23219); experiment: Inhibition of prostaglandin biosynthesis in recombinant human PGHS-1 enzyme assay (PGE2 by EIA); type: biochemical
T1 construct: made in house; host or cells: baculovirus/Sf9 insect cells (microsomes)
Experimental: (§1) Inhibition of prostaglandin biosynthesis was evaluated in recombinant human PGHS-1 and PGHS-2 enzyme assays. Representative compounds dissolved in DMSO (3.3% v/v) were preincubated with microsomes from recombinant human PGHS-1 or PGHS-2 expressed in the baculovirus/Sf9 cell system (Gierse, J. K., Hauser, S. D., Creely, D. P., Koboldt, C., Rangwala, S., H., Isakson, P. C., and Seibert, K. Expression and selective inhibition of the constituitive and inducible forms of cyclooxygenase Biochem J. 1995, 305: 479.), together with the cofactors phenol (2 mM) and hematin (1 μM) for 60 minutes prior to the addition of 10 μM arachidonic acid. The reaction was allowed to run for 2.5 minutes at room temperature prior to quenching with HCl and neutralization with NaOH. PGE2 production in the presence and absence of the drug was determined by EIA analysis. The EIA was conducted in 96 well microtiter plates (Nunc Roskilde, Denmark) and optical density measured using a microplate reader (Vmax, Molecular Devices Corp., Menlo Park, Calif.). EIA reagents for prostaglandin determination were purchased from Perseptive Diagnostics, Cambridge, Mass. PGE2 levels were measured against standards prepared in the same milieu. The immunoassays were conducted as recommended by the manufacturer.

recombinant human PGHS-2 = biological target: T2, recombinant human PGHS-2 (Homo sapiens, UniProt P35354); experiment: Inhibition of prostaglandin biosynthesis in recombinant human PGHS-2 enzyme assay (PGE2 by EIA); type: biochemical
T2 construct: made in house; host or cells: baculovirus/Sf9 insect cells (microsomes)
T2 sequence (P35354 18-604): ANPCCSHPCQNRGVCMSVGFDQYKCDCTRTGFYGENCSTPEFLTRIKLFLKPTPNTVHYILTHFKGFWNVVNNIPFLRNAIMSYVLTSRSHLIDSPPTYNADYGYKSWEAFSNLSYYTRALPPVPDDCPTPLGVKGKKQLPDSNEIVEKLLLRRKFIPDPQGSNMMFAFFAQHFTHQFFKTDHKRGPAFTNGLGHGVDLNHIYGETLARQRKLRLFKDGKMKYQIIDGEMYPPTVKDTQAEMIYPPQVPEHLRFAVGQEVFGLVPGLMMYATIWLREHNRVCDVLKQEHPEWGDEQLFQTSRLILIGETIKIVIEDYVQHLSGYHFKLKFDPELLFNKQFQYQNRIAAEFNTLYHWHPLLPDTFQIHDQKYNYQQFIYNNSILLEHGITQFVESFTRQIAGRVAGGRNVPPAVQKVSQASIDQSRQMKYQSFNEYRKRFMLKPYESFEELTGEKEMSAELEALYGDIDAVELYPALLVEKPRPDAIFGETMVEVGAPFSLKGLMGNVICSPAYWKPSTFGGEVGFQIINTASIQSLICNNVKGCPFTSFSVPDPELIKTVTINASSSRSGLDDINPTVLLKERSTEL
Experimental: as §1

PGHS-1 = conditions: background statement; cited from earlier work
PGHS-2 = conditions: background statement; cited from earlier work

T1 sequence (P23219 24-599): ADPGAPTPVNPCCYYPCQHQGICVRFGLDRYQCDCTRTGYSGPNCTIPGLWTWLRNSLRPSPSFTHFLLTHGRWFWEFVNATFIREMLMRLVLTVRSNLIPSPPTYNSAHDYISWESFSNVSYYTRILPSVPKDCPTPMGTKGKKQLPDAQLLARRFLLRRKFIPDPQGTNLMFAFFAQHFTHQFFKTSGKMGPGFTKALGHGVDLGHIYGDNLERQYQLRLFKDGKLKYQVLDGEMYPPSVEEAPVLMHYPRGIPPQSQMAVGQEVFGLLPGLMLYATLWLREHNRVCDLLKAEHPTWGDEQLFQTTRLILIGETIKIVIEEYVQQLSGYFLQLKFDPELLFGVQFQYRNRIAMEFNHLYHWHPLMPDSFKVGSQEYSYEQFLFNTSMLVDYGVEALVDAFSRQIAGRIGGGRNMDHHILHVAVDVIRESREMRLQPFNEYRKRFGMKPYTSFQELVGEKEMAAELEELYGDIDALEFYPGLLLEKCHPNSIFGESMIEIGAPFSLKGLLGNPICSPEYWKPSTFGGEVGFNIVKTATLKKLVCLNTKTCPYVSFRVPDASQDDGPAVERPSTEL

Row | SMILES | inhibition of PGHS-1 (PGHS-1) | inhibition of PGHS-2 (PGHS-2) | also measured
1 | COc1ccc2c(c1)c(CC=NOCC(=O)OCC1COC(C)(C)O1)c(C)n2C(=O)c1ccc(Cl)cc1 (stereo not shown) [Example 2, (4-chlorobenzoyl-5-methoxy-2-methylindol-3-yl) acetaldehyde-.omicron.-4-(2.2-dimethyldioxanylmethyloxycarbonylmethyl) oxime] |  |  | pIC50 (recombinant human PGHS-1): 7.05; pIC50 (recombinant human PGHS-2): 8.52
2 | COc1ccc2c(c1)c(CC=NOCC(=O)OCC(O)CO)c(C)n2C(=O)c1ccc(Cl)cc1 (racemic) [Example 3, (4-chlorobenzoyl-5-methoxy-2-methylindol-3-yl) acetaldehyde-.omicron.-4-(2.3-dihydroxypropyloxycarbonylmethyl) oxime] |  |  | inhibition at 1 µM (recombinant human PGHS-1; @ 1 μM, human recombinant PGHS-1, read-out: PGHS-1 % inhibition (printed in PGHS-1 IC50 column)): 41%; inhibition at 0.1 µM (recombinant human PGHS-2; @ 0.1 μM, human recombinant PGHS-2, read-out: PGHS-2 % inhibition (printed in PGHS-2 IC50 column)): 70%
3 | CC1=C(CC(=O)O)c2cc(F)ccc2/C1=C\c1ccc([S+](C)[O-])cc1 (stereo not shown) [sulindac] | inhibit both PGHS-1 and PGHS-2 | inhibit both PGHS-1 and PGHS-2 | 
4 | COc1ccc2cc([C@H](C)C(=O)O)ccc2c1 [naproxen] | inhibit both isozymes | inhibit both isozymes | 
5 | CC(C)Cc1ccc(C(C)C(=O)O)cc1 (stereo not shown) [ibuprofen] | inhibit both isozymes | inhibit both isozymes | 
6 | COc1ccc2c(c1)c(CC(=O)O)c(C)n2C(=O)c1ccc(Cl)cc1 [Indomethacin] | inhibit both PGHS-1 and PGHS-2 | inhibit both PGHS-1 and PGHS-2 | 
7 | COc1ccc2c(c1)c(CC=NOCC(=O)O)c(C)n2C(=O)c1ccc(Cl)cc1 [Example 1, (4-chlorobenzoyl-5-methoxy-2-methylindol-3-yl) acetaldehyde-.omicron.-carboxymethyl oxime] |  |  | pIC50 (recombinant human PGHS-2): 6.14
